Laboratory results: patent publication US20260191954A1, “COMPOSITIONS AND METHODS FOR NEOADJUVANT TREATMENT IN CANCER” (INNATE PHARMA, priority 2022, published 2026)

What was measured:
H1703 tumor cell line = experiment: ATP release from squamous NSCLC H1703 tumor cells after chemotherapy (CellTiter-Glo); type: cell-based; details: culture supernatant, FIG. 2
Method: This experiment aimed as studying ATP release from squamous NSCLC tumor cells following chemotherapy treatment. The squamous NSCLC H1703 tumor cell line was incubated separately with different chemotherapies. The measurement of ATP release was performed 24 h after Cisplatin treatment, 72 h after Carboplatin, 60 h after Oxaliplatin, 48 h after Pemetrexed, 48 h after Gemcitabine, 72 h after 5-FU, 24 h after Paclitaxel and 40 h after Docetaxel. Extracellular ATP release in the culture supernatant was measured with a luminescent-based assay (CellTiter-Glo®) and expressed in Luminescence Arbitrary Unit (AU). Means+/−SD.
Result are shown in FIG. 2, showing ATP release from H1703 tumor cell line (sqNSCLC) following the treatment with different chemotherapies, cisplatin, carboplatin, oxaliplatin, pemetrexed, gemcitabine, 5-Fu, paclitaxel and docetaxel.

MC38 cancer cell line = experiment: MC38 tumor growth in huCD39KI mice (gemcitabine +/- anti-PD-L1 +/- molPH5201); type: in vivo, human CD39 knock-in (huCD39KI) mice; details: for tumor growth compared to the control: p<0.001
Method: In vivo experiments were performed in human CD39 knock-in (huCD39KI) mice, genetically modified to express human CD39 in place of its murine counterpart mouse CD39. These mice were sub-cutaneously (s.c.) engrafted with the MC38 cancer cell line. Mice bearing established tumors were dosed with isotype control (IC) antibodies, anti-human CD39 antibody (molPH5201, described above), gemcitabine chemotherapy and anti-mouse PD-L1 antibody (an antibody that binds murine PD-L1 having an Fc domain with amino acid substitutions to eliminate binding to mouse Fcγ receptors.
Male and female huCD39KI mice were engrafted subcutaneously (s.c.) with 1×10^6 MC38 cancer cells. Treatments were initiated after mouse randomization. Mice were treated twice a week for two weeks with gemcitabine (25 mg/kg) or PBS (at day 8, 11, 15 and 18 after cell engraftment) and once a week for four weeks with either anti-human CD39 antibody (molPH5201) or the corresponding isotype control (IC) antibody (400 μg/mouse).
Randomization of mice into four groups was performed on day 7 post tumor cell engraftment, at a mean tumor volume of 72 mm^3±27 mm^3 with individual tumor volumes comprised between 37 and 130 mm^3.
(§1) Male and female huCD39KI mice were engrafted s.c. with 1×10^6 MC38. Treatments were initiated after mouse randomization. Mice were treated twice a week for two weeks with gemcitabine (25 mg/kg) or PBS, twice a week for three weeks with either anti-mouse PD-L1 antibody or the corresponding IC antibody (200 μg/mouse) and once a week for four or five weeks depending on the experiment with either anti-human CD39 antibody (molPH5201) or the corresponding IC antibody (400 μg/mouse). Mouse randomization into five groups was performed on day 7 post tumor cell engraftment at a mean tumor volume of 62 mm^3±23 mm^3 with individual tumor volumes comprised between 31 and 117 mm^3.
as §1, with “As in Experiment 1, male” for “Male”, “64” for “62”, “115” for “117”
as §1, with “As in Experiments 1 and 2, male” for “Male”, “engraftment,” for “engraftment”, “74 mm^3±21” for “62 mm^3±23”, “40” for “31”, “121” for “117”
The three experiments were pooled and results are shown in FIG. 9, showing Tumor growth of MC38 tumor in huCD39KI mice post treatment with gemcitabine+/−anti-PD-L1+/−molPH5201. MC38 tumor-bearing huCD39KI mice were randomized on day 7 and then treated as indicated with 25 mg/kg ip of gemcitabine or PBS, 200 μg ip of anti-mouse PD-L1 antibody or corresponding isotype control antibody and with 400 μg iv of molPH5201 or corresponding IC antibody. Graphs show tumor growth in each individual (n=31/group). CR: Complete Response.

[1] = Phase 1 study of IPH5201 +/- durvalumab in advanced solid tumours: safety; type: in vivo; details: of 19 patients given IPH5201+durvalumab (1500 mg Q3W)
Method: A first-in-human, multicentre, non-randomised, open-label, phase 1 study was conducted in order to assess the safety, efficacy, pharmacokinetics (PK) and pharmacodynamics (PD) of IPH5201±durvalumab (Imfinzi™) in patients with advanced solid tumours. The study consisted of two consecutive dose-escalation parts: • Part 1: Ascending doses of IPH5201 (100, 300, 1000 and 3000 mg) every 3 weeks (Q3W). • Part 2: Ascending doses of IPH5201 (300, 1000 and 3000 mg) and 1500 mg durvalumab Q3W.
PD cohorts enrolled patients with advanced squamous cell lung carcinoma or advanced pancreatic ductal adenocarcinoma in the top two dose levels of Parts 1 and 2. Primary endpoints were safety and tolerability. Key secondary endpoints included preliminary antitumour activity measured by objective response and disease control per RECIST v1.1, PK and immunogenicity. Exploratory endpoints included efficacy measured by duration of response and progression-free survival (PFS) per RECIST v1.1, overall survival and assessment of biomarkers.
Key inclusion criteria were: • Adults aged ≥18 years. • Histologically or cytologically confirmed advanced solid tumours. • At least one measurable lesion per RECIST v1.1. • Refractoriness to standard therapy or disease for which no standard therapy exists. • Eastern Cooperative Oncology Group Performance Status of 0 or 1. • Archival or fresh tumour sample. • Key exclusion criteria were: • Previous treatment with any agents targeting CD73, CD39, or adenosine receptors. • Treatment with any conventional or investigational anticancer therapy within 21 days of the first planned dose. • Active or prior autoimmune or inflammatory disorders within the past 5 years. • Cardiac and vascular criteria including presence of acute coronary syndrome or thromboembolic events within 6 months prior to enrolment, congestive heart failure, serious cardiac arrhythmia requiring medication, or uncontrolled hypertension. • Untreated metastases to the central nervous system.
Overall, 57 patients received treatment (IPH5201, n=38; IPH5201+durvalumab, n=19). […] Treatment-emergent adverse events (TEAEs) occurred in 96.5% of patients; 40.4% had grade ≥3 TEAEs. […] Treatment-related adverse events (TRAEs) occurred in 66.7% of patients (37/57 (64.9%) related to IPH5201; 11/19 (57.9%) related to durvalumab). […] The most common TRAEs were infusion-related reactions (21.1%), fatigue (17.5%), nausea, arthralgia, tumour pain and pruritus (8.8% each). […] Maximum tolerated dose (MTD) was not reached.

[2] = biological target: T1, recombinant human CD39 protein (huCD39) (Homo sapiens, UniProt P49961); experiment: eATP release by H1703 (CD39-) cells incubated with recombinant huCD39, with or without IPH5201, then docetaxel; type: cell-based; details: H1703 (CD39-) cells; docetaxel 0.1 μM; 40 h; FIG. 3A
T1 sequence (P49961 38-478 limits assumed): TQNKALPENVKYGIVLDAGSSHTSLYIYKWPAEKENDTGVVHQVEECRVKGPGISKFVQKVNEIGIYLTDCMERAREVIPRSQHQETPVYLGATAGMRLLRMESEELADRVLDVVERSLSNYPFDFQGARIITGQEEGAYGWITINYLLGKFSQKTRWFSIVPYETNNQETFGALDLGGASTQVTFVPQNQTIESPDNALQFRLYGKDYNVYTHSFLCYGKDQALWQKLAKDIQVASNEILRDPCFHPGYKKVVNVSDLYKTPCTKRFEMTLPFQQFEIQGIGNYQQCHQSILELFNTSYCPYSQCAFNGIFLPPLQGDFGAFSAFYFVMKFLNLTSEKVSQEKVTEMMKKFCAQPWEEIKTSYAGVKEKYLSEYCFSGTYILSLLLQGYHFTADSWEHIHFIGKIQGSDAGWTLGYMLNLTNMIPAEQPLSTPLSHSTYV
Method: H1703 (CD39−) cells were incubated with recombinant human CD39 protein (huCD39) (400 ng/ml) to mimic soluble CD39 in tumor microenvironment with or without IPH5201 (humanized anti-CD39 antibody having the respective heavy and light chain amino acid sequences of SEQ ID NOS: 10 and 11) at 10 μg/mL and then treated with docetaxel (0.1 μM). The measure of extracellular ATP (eATP) release was performed 40 h after docetaxel treatment.
(§2) OAW42 (CD39+) cells were incubated with 10 or 50 μg/mL of IPH5201 and treated with a dose range of docetaxel. The measure of eATP release was performed 30 h after docetaxel treatment. eATP was measured in the cell culture supernatant with a luminescent-based assay (CellTiter-Glo®) and expressed in Luminescence Arbitrary Unit (AU). Means+/−SD.

OAW42 (CD39+) cells = experiment: eATP release in OAW42 (CD39+) cells with IPH5201 and docetaxel; type: cell-based; details: docetaxel dose range, 30 h, FIG. 3B
Method: as §2

N.N.O=C([O-])C1(C(=O)[O-])CCC1.[Pt+2] [carboplatin]
ATP release (H1703 tumor cell line; 72 h after Carboplatin): induced significant ATP release

N.N.[Cl][Pt][Cl] [cisplatin]
ATP release (H1703 tumor cell line; 24 h after Cisplatin treatment): induced significant ATP release

Nc1nc2[nH]cc(CCc3ccc(C(=O)N[C@@H](CCC(=O)O)C(=O)O)cc3)c2c(=O)[nH]1 [pemetrexed]
ATP release (H1703 tumor cell line; 48 h after Pemetrexed): induced significant ATP release

Nc1ccn([C@@H]2O[C@H](CO)[C@@H](O)C2(F)F)c(=O)n1 [gemcitabine, reference compound]
ATP release (H1703 tumor cell line; 48 h after Gemcitabine): induced significant ATP release | tumor growth compared to the control (MC38 cancer cell line; Experiment 1 (FIG. 6)): significantly slowed down tumor growth | tumor growth compared to the control (MC38 cancer cell line; Experiment 2 (FIG. 7)): significantly slowed down tumor growth | tumor growth compared to the control (MC38 cancer cell line; Experiment 3 (FIG. 8)): significantly inhibited tumor growth | tumor growth compared to the control group (MC38 cancer cell line; gemcitabine +/- molPH5201 experiment (FIG. 5), gemcitabine 25 mg/kg, molPH5201 400 μg/mouse, p<0.001 where significant): drastically and significantly slowed down tumor growth

durvalumab [reference compound]
patients with TRAEs related to durvalumab [1]: 57.9% | patients with TRAEs related to durvalumab, count [1]: 11/19

CC(=O)O[C@@]12CO[C@@H]1C[C@H](O)[C@@]1(C)C(=O)[C@H](O)C3=C(C)[C@@H](OC(=O)[C@H](O)[C@@H](NC(=O)OC(C)(C)C)c4ccccc4)C[C@@](O)([C@@H](OC(=O)c4ccccc4)[C@H]21)C3(C)C [docetaxel, reference compound]
extracellular ATP (eATP) release [2]: induced strong release of eATP | ATP release (H1703 tumor cell line; 40 h after Docetaxel): induced significant ATP release | eATP release (OAW42 (CD39+) cells): at best a modest release of eATP

O=C1[O][Pt]2([NH][C@@H]3CCCC[C@H]3[NH]2)[O]C1=O [oxaliplatin]
ATP release (H1703 tumor cell line; 60 h after Oxaliplatin): induced significant ATP release

CC(=O)O[C@H]1C(=O)[C@@]2(C)[C@H]([C@H](OC(=O)c3ccccc3)[C@]3(O)C[C@H](OC(=O)[C@H](O)[C@@H](NC(=O)c4ccccc4)c4ccccc4)C(C)=C1C3(C)C)[C@]1(OC(C)=O)CO[C@@H]1C[C@@H]2O [paclitaxel]
ATP release (H1703 tumor cell line; 24 h after Paclitaxel): induced significant ATP release

O=c1[nH]cc(F)c(=O)[nH]1 [5-Fu, 5-FU]
ATP release (H1703 tumor cell line; 72 h after 5-FU): induced significant ATP release
